Source: ChEMBL document CHEMBL3045186, “Assessments of crop losses in rice ecosystems due to stem borer damage (Lepidoptera: Pyralidae)” (2006)

Columns and labels:
Assay type in all cases: functional
Lepidoptera [1] = test: Insecticidal activity against Lepidoptera infected rice plant assessed as increase in grain yield at 1 kg ai/ha applied as granules on 30 to 50 days post planting (reference value: 28%)
Lepidoptera [2] = test: Insecticidal activity against Lepidoptera infected rice plant assessed as dead heart damage at 1 kg ai/ha applied as granules on 30 to 50 days post planting (reference value: 11.87%)
Lepidoptera [3] = test: Insecticidal activity against Lepidoptera infected rice plant assessed as white earhead damage at 1 kg ai/ha applied as granules on 30 to 50 days post planting (reference value: 12.17%)
Lepidoptera [4] = test: Insecticidal activity against Lepidoptera infected rice plant assessed as white earhead damage at 0.75 kg ai/ha applied as emulsified concentrates through foliar spray on 30 to 50 days post planting (reference value: 12.17%)
Lepidoptera [5] = test: Insecticidal activity against Lepidoptera infected rice plant assessed as increase in grain yield at 0.75 kg ai/ha applied as emulsified concentrates through foliar spray on 30 to 50 days post planting (reference value: 28%)
Lepidoptera [6] = test: Insecticidal activity against Lepidoptera infected rice plant assessed as dead heart damage at 0.75 kg ai/ha applied as emulsified concentrates through foliar spray on 30 to 50 days post planting (reference value: 11.87%)
Lepidoptera [7] = test: Insecticidal activity against Lepidoptera infected rice plant assessed as increase in grain yield (reference value: 28%)
Lepidoptera [8] = test: Insecticidal activity against Lepidoptera infected rice plant assessed as white earhead damage (reference value: 12.17%)
Lepidoptera [9] = test: Insecticidal activity against Lepidoptera infected rice plant assessed as dead heart damage (reference value: 11.87%)

SMILES	Crop_yield (Lepidoptera [1]) [%]	Activity (Lepidoptera [2]) [%]	Activity (Lepidoptera [3]) [%]	Activity (Lepidoptera [4]) [%]	Crop_yield (Lepidoptera [5]) [%]	Activity (Lepidoptera [6]) [%]	Crop_yield (Lepidoptera [7]) [%]	Activity (Lepidoptera [8]) [%]	Activity (Lepidoptera [9]) [%]
CCOP(=O)(/N=C1\SCC(C)S1)OCC (stereo unspecified) [CYTROLANE]	32	3.63	3.14	–	–	–	–	–	–
CCOP(=S)(OCC)Oc1nc(Cl)c(Cl)cc1Cl [CHLORPYRIFOS]	37	5.39	6.18	6.72	36	7.26	–	–	–
CNC(=O)Oc1cccc2c1OC(C)(C)C2 [CARBOFURAN]	35	4.15	5.14	–	–	–	–	–	–
CNC(=O)/C=C(\C)OP(=O)(OC)OC [MONOCROTOPHOS]	–	–	–	–	–	–	37	6.31	4.76
CCOP(=S)(OCC)Oc1cnc2ccccc2n1 [QUINALPHOS]	–	–	–	–	–	–	28	6.33	4.12
CCOP(=S)(OCC)Oc1cc(C)nc(C(C)C)n1 [DIMPYLATE]	–	–	–	3.19	42	8.14	–	–	–
